Data taken from PubChem BioAssay AID1963437 (Molecular Pharmacology Branch, DTP, NCI, 2024).

Test system: OVCAR-8 complex spheroid, growth inhibition
Assay: Anticancer human tumor OVCAR-8 cell line growth inhibition [Asc];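 also: spheroids exposed to agents for 7 days before readout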;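 as to viability, T/C: percent viability relative to DMSO vehicle wells taken as 100%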
Conditions: for viability, T/C: stronger effect = lower value
Summary of the method: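 Tumor cells were grown as multicellular spheroids with stromal HUVEC and mesenchymal stem cells and treated singly or in combination. Concentrations fell in half-log steps from the clinical Cmax, or from 10 microM where none was known.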

C#Cc1c(F)ccc2cc(O)cc(-c3ncc4c(N5CC6CCC(C5)N6)nc(OCC56CCCN5CC(F)C6)nc4c3F)c12 (centres undefined) + CNC(C)C(=O)NC1CN(S(=O)(=O)c2cccc(S(=O)(=O)N3CCC4CCC(C(=O)NC(c5ccccc5)c5ccccc5)N4C(=O)C(NC(=O)C(C)NC)C3)c2)CCC2CCC(C(=O)NC(c3ccccc3)c3ccccc3)N2C1=O showed an IC50 (curve of first compound, second compound 0.00316 µM) of over 10 µM, an IC50 (curve of first compound, second compound 0.01 µM) of over 10 µM and an IC50 (curve of first compound, second compound 0.0316 µM) of over 10 µM. The IC50 (curve of first compound, second compound 0.1 µM) was over 10 µM, the IC50 (curve of first compound, second compound 0.316 µM) was over 10 µM and the IC50 (curve of first compound, second compound 1 µM) was over 10 µM. The viability, T/C (second compound 0.00316 µM, first compound 0.0316 µM) was 106%, the viability, T/C (second compound 0.00316 µM, first compound 0.1 µM) was 93.7% and the viability, T/C (second compound 0.00316 µM, first compound 0.316 µM) was 87.8%. For the same molecule, the viability, T/C (second compound 0.00316 µM, first compound 1 µM) was 90.2%, the viability, T/C (second compound 0.00316 µM, first compound 3.16 µM) was 101% and the viability, T/C (second compound 0.00316 µM, first compound 10 µM) was 135%. For the same molecule, the viability, T/C (second compound 0.01 µM, first compound 0.0316 µM) was 104%, the viability, T/C (second compound 0.01 µM, first compound 0.1 µM) was 89.9% and the viability, T/C (second compound 0.01 µM, first compound 0.316 µM) was 91%. It also gave a viability, T/C (second compound 0.01 µM, first compound 1 µM) of 103%, a viability, T/C (second compound 0.01 µM, first compound 3.16 µM) of 96.4% and a viability, T/C (second compound 0.01 µM, first compound 10 µM) of 112%. For the same molecule, the viability, T/C (second compound 0.0316 µM, first compound 0.0316 µM) was 89%, the viability, T/C (second compound 0.0316 µM, first compound 0.1 µM) was 83.2% and the viability, T/C (second compound 0.0316 µM, first compound 0.316 µM) was 83%. For the same molecule, the viability, T/C (second compound 0.0316 µM, first compound 1 µM) was 88.2%, the viability, T/C (second compound 0.0316 µM, first compound 3.16 µM) was 96.4% and the viability, T/C (second compound 0.0316 µM, first compound 10 µM) was 136%. The viability, T/C (second compound 0.1 µM, first compound 0.0316 µM) was 80.6%, the viability, T/C (second compound 0.1 µM, first compound 0.1 µM) was 95.4% and the viability, T/C (second compound 0.1 µM, first compound 0.316 µM) was 88.4%. It also gave a viability, T/C (second compound 0.1 µM, first compound 1 µM) of 82.7%, a viability, T/C (second compound 0.1 µM, first compound 3.16 µM) of 85.8% and a viability, T/C (second compound 0.1 µM, first compound 10 µM) of 98.2%. For the same molecule, the viability, T/C (second compound 0.316 µM, first compound 0.0316 µM) was 74%, the viability, T/C (second compound 0.316 µM, first compound 0.1 µM) was 87.6% and the viability, T/C (second compound 0.316 µM, first compound 0.316 µM) was 80.2%. The viability, T/C (second compound 0.316 µM, first compound 1 µM) was 89.9%, the viability, T/C (second compound 0.316 µM, first compound 3.16 µM) was 77.1% and the viability, T/C (second compound 0.316 µM, first compound 10 µM) was 119%. It also gave a viability, T/C (second compound 1 µM, first compound 0.0316 µM) of 80.9%, a viability, T/C (second compound 1 µM, first compound 0.1 µM) of 86.1% and a viability, T/C (second compound 1 µM, first compound 0.316 µM) of 112%. For the same molecule, the viability, T/C (second compound 1 µM, first compound 1 µM) was 91.6%, the viability, T/C (second compound 1 µM, first compound 3.16 µM) was 88.5% and the viability, T/C (second compound 1 µM, first compound 10 µM) was 109%.
In the case of O=C(c1ccc(F)c(F)c1Nc1ccc(I)cc1F)N1CC(O)([C@@H]2CCCCN2)C1 + CCN1C(C(=O)NC23CCC(C(=O)O)(CC2)CC3)C(c2cccc(Cl)c2F)C2(C(=O)Nc3cc(Cl)ccc32)C12CCCCC2, the IC50 (curve of first compound, second compound 0.00949 µM) is reported as over 1 µM, the IC50 (curve of first compound, second compound 0.03 µM) is reported as over 1 µM and the IC50 (curve of first compound, second compound 0.0949 µM) is reported as over 1 µM. For the same molecule, the IC50 (curve of first compound, second compound 0.3 µM) was over 1 µM, the IC50 (curve of first compound, second compound 0.949 µM) was over 1 µM and the IC50 (curve of first compound, second compound 3 µM) was over 1 µM. It also gave a viability, T/C (second compound 0.00949 µM, first compound 0.00316 µM) of 102%, a viability, T/C (second compound 0.00949 µM, first compound 0.01 µM) of 102% and a viability, T/C (second compound 0.00949 µM, first compound 0.0316 µM) of 119%. The viability, T/C (second compound 0.00949 µM, first compound 0.1 µM) was 153%, the viability, T/C (second compound 0.00949 µM, first compound 0.316 µM) was 230% and the viability, T/C (second compound 0.00949 µM, first compound 1 µM) was 104%. It also gave a viability, T/C (second compound 0.03 µM, first compound 0.00316 µM) of 106%, a viability, T/C (second compound 0.03 µM, first compound 0.01 µM) of 108% and a viability, T/C (second compound 0.03 µM, first compound 0.0316 µM) of 138%. The viability, T/C (second compound 0.03 µM, first compound 0.1 µM) was 161%, the viability, T/C (second compound 0.03 µM, first compound 0.316 µM) was 241% and the viability, T/C (second compound 0.03 µM, first compound 1 µM) was 101%. It also gave a viability, T/C (second compound 0.0949 µM, first compound 0.00316 µM) of 101%, a viability, T/C (second compound 0.0949 µM, first compound 0.01 µM) of 97% and a viability, T/C (second compound 0.0949 µM, first compound 0.0316 µM) of 122%. For the same molecule, the viability, T/C (second compound 0.0949 µM, first compound 0.1 µM) was 168%, the viability, T/C (second compound 0.0949 µM, first compound 0.316 µM) was 208% and the viability, T/C (second compound 0.0949 µM, first compound 1 µM) was 113%. For the same molecule, the viability, T/C (second compound 0.3 µM, first compound 0.00316 µM) was 105%, the viability, T/C (second compound 0.3 µM, first compound 0.01 µM) was 103% and the viability, T/C (second compound 0.3 µM, first compound 0.0316 µM) was 159%. For the same molecule, the viability, T/C (second compound 0.3 µM, first compound 0.1 µM) was 173%, the viability, T/C (second compound 0.3 µM, first compound 0.316 µM) was 238% and the viability, T/C (second compound 0.3 µM, first compound 1 µM) was 137%. The viability, T/C (second compound 0.949 µM, first compound 0.00316 µM) was 97.2%, the viability, T/C (second compound 0.949 µM, first compound 0.01 µM) was 102% and the viability, T/C (second compound 0.949 µM, first compound 0.0316 µM) was 163%. The viability, T/C (second compound 0.949 µM, first compound 0.1 µM) was 175%, the viability, T/C (second compound 0.949 µM, first compound 0.316 µM) was 248% and the viability, T/C (second compound 0.949 µM, first compound 1 µM) was 139%. It also gave a viability, T/C (second compound 3 µM, first compound 0.00316 µM) of 151%, a viability, T/C (second compound 3 µM, first compound 0.01 µM) of 141% and a viability, T/C (second compound 3 µM, first compound 0.0316 µM) of 183%. For the same molecule, the viability, T/C (second compound 3 µM, first compound 0.1 µM) was 217%, the viability, T/C (second compound 3 µM, first compound 0.316 µM) was 260% and the viability, T/C (second compound 3 µM, first compound 1 µM) was 161%.
With Cc1c(S(C)(=O)=O)c(-c2cc(F)cc(N3CCN(c4ccc(NS(=O)(=O)c5ccc(NC(CCN6CCC(C(=O)OCCCP(=O)(O)O)CC6)CSc6ccccc6)c(S(=O)(=O)C(F)(F)F)c5)cc4)CC3)c2)c(-c2ccc(Cl)cc2)n1C(C)C (centres undefined) the viability, T/C (compound 0.0316 µM) was 91.2% [middle of 7 runs], the viability, T/C (compound 0.1 µM) was 94% [middle of 7 runs] and the viability, T/C (compound 1 µM) was 98.1% [middle of 7 runs]. For the same molecule, the viability, T/C (compound 3.16 µM) was 104% [middle of 7 runs] and the IC50 (compound alone, run of 11/07/2022) was over 10 µM.
